Test [1] concerns the target T1, cGAS (Homo sapiens, UniProt Q8N884). The test can be described thus: In vitro inhibition assay of cGAS activity (cGAMP production, RapidFire mass spectrometry). Format: biochemical. On the set-up: Insert cDNA encoding full-length of human cGAS; His6; made in house; host or cells: E. coli BL21(DE3). The settings on record: 10 nM recombinant human cGAS, 60 nM 75-bp dsDNA, 50 μM ATP, 50 μM GTP, 3 hrs. A digest of the protocol: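 Reactions in 10 mM Tris-Cl pH 7.5, 5 mM MgCl2, 0.01% Triton X-100 contained serially diluted compound, 10 nM recombinant cGAS, dsDNA activator and 50 μM each of ATP and GTP, run 3 hrs at ambient temperature. After formic acid quench, cGAMP output was measured by mass spectrometry and percent inhibition versus log concentration was fitted for IC50.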

The target of test [2] is T1, cGAS. The test can be described thus: Cellular assay to measure cGAS activity (IFNb AlphaLISA in THP1 cells stimulated by RDG-Adenovirus-GFP). Format: cell-based. On the set-up: host or cells: THP1 cells differentiated with PMA and stimulated with RDG-Adenovirus-GFP. The settings on record: PMA-differentiated THP1 cells, RDG-Adenovirus-GFP at 1000 MOI; inhibition of IFNb production as marker for cGAS activity. A digest of the protocol:
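The readout is secreted IFNb measured by AlphaLISA after overnight compound exposure. THP1 cells, differentiated with PMA for 24 h and rested overnight, were infected with RDG-Adenovirus-GFP (1000 MOI, 4 h) before compounds were added; IC50 came from a 4-parameter logistic fit of inhibition against log concentration.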
A general note: In Alpha technology, singlet oxygen from a donor bead excites a nearby acceptor bead.

From patent publication US20240246979A1, “cGAS INHIBITORS” (Eli Lilly and Company, priority 2022, published 2024) come the findings set out here.

Each structure is given as a SMILES string. pIC50: −log10 of the molar value.

T1 sequence (Q8N884 whole entry): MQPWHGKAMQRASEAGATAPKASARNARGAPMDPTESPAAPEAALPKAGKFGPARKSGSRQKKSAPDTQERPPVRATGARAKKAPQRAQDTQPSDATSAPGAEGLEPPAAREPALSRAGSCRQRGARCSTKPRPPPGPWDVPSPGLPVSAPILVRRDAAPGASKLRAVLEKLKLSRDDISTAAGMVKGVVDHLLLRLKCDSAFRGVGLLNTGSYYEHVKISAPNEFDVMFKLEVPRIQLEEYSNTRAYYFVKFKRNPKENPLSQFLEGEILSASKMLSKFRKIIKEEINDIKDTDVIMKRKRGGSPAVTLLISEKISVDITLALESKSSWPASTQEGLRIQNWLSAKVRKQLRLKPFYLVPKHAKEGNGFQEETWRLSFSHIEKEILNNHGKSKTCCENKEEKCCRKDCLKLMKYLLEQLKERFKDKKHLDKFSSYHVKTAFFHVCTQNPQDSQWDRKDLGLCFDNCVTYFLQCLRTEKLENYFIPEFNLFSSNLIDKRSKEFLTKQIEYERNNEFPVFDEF

By pIC50 is commonly meant the negative decadic logarithm of the IC50, by convention in mol/L. As to `C[C@H](O)C(=O)Nc1cc(Cl)c(Cl)c2c1c1c(n2C)CCNC(=O)[C@H]1C` (single isomer, unassigned) [Example 94], the pIC50 on cGAS [1] was 7.61; against cGAS [2], 6.18.
In the case of `Cn1ncc(-c2cc(Cl)c(Cl)c3[nH]c4c(c23)CC(=O)NC[C@H]4CCN2CCOCC2)n1` (single isomer, unassigned) [Example 175], the pIC50 is 7.26 at cGAS [1] and 5.84 against cGAS [2].
The corresponding values for `C[C@H](O)COc1cc(Cl)c(Cl)c2[nH]c3c(c12)[C@H](C)C(=O)NCC3` (single isomer, unassigned) [Example 84] are 7.35 and 5.84.
The corresponding values for `CC1C(=O)NCCc2[nH]c3c(Cl)c(Cl)cc(NC(=O)C4CCO4)c3c21` (centres unmarked) [Example 44, N-(7,8-Dichloro-1-methyl-2-oxo-1,2,3,4,5,6-hexahydroazepino[4,5-b]indol-10-yl)oxetane-2-carboxamide] are 7.41 and 5.55.
The corresponding values for `CC1C(=O)NCCc2[nH]c3c(Cl)c(Cl)cc(NC4COC4)c3c21` (racemic) [Example 60, 7,8-Dichloro-1-methyl-10-(oxetan-3-ylamino)-3,4,5,6-tetrahydroazepino[4,5-b]indol-2(1H)-one] are 7.27 and 6.01.
Regarding `CC(F)(F)C[C@@H]1CNC(=O)Cc2c1[nH]c1c(Cl)c(Cl)cc(CC#N)c21` (single isomer, unassigned) [Example 138], the pIC50 on cGAS [1] was 8.10; at cGAS [2], 6.37.
On the same counts, the results for `C[C@@H]1C(=O)NCCc2c1c1c(NC(=O)CO)cc(Cl)c(Cl)c1n2C` (single isomer, unassigned) [Example 92] are 7.76 and 6.59.
As for `CC1C(=O)NCCc2c1c1c(NCCO)cc(Cl)c(Cl)c1n2C` (single isomer, unassigned) [Example 51, 7,8-Dichloro-10-((2-hydroxyethyl)amino)-1,6-dimethyl-3,4,5,6-tetrahydroazepino[4,5-b]indol-2(1H)-one], the results for the pIC50 at cGAS [1] and against cGAS [2] were 8.08 and 5.87, respectively.
On the same counts, the results for `CC1C(=O)NCCc2c1c1c(OCC#N)cc(Cl)c(Cl)c1n2C` (centres unmarked) [Example 78, 2-((7,8-Dichloro-1,6-dimethyl-2-oxo-1,2,3,4,5,6-hexahydroazepino[4,5-b]indol-10-yl)oxy)acetonitrile] are 7.33 and 6.09.
Regarding `O=C1Cc2c([nH]c3c(Cl)c(Cl)cc(-c4nnc[nH]4)c23)CCN1` [Example 29, 7,8-Dichloro-10-(4H-1,2,4-triazol-3-yl)-3,4,5,6-tetrahydroazepino[4,5-b]indol-2(1H)-one], the negative-log IC50 (pIC50) on cGAS [1] is 6.91; at cGAS [2] it was < 5.00.
The corresponding values for `C[C@@H]1C(=O)NCCc2[nH]c3c(Cl)c(Cl)cc(OCc4cocn4)c3c21` (single isomer, unassigned) [Example 178, (S)-7,8-Dichloro-1-methyl-10-(oxazol-4-ylmethoxy)-3,4,5,6-tetrahydroazepino[4,5-b]indol-2(1H)-one or (R)-7,8-dichloro-1-methyl-10-(oxazol-4-ylmethoxy)-3,4,5,6-tetrahydroazepino[4,5-b]indol-2(1H)-one] are 7.97 and 6.51.
For `CC1C(=O)NCCc2[nH]c3c(Cl)c(Cl)cc(CCCO)c3c21` (centres unmarked) [Example 88, 7,8-Dichloro-10-(3-hydroxypropyl)-1-methyl-3,4,5,6-tetrahydroazepino[4,5-b]indol-2(1H)-one], the pIC50 at cGAS [1] was 7.44; on cGAS [2], 5.49.
The corresponding values for `CC(F)(F)C[C@@H]1CNC(=O)Cc2c1[nH]c1c(Cl)c(Cl)cc(CC#N)c21` (single isomer, unassigned) [Example 139] are 6.08 and 5.34.
On the same counts, the results for `COCCNc1cc(Cl)c(Cl)c2[nH]c3c(c12)C(C)C(=O)NCC3` (racemic) [Example 46, 7,8-Dichloro-10-((2-methoxyethyl)amino)-1-methyl-3,4,5,6-tetrahydroazepino[4,5-b]indol-2(1H)-one] are 7.65 and 6.05.
`CC[C@H]1C(=O)NCCc2[nH]c3c(Cl)c(Cl)cc(OCC#N)c3c21` (single isomer, unassigned) [Example 35]: the pIC50 at cGAS [1] is 7.36; against cGAS [2] it was 5.43.
With `CCCC1CNC(=O)Cc2c1[nH]c1c(Cl)c(Cl)cc(-c3cnn(C)n3)c21` (centres unmarked) [Example 164, 7,8-Dichloro-10-(2-methyl-2H-1,2,3-triazol-4-yl)-5-propyl-3,4,5,6-tetrahydroazepino[4,5-b]indol-2(1H)-one], the pIC50 on cGAS [1] is 7.72; against cGAS [2] it was 5.86.
For `Cn1c2c(c3c(OCC#N)cc(Cl)c(Cl)c31)CC(=O)NC[C@H]2CCO` (single isomer, unassigned) [Example 126], the pIC50 at cGAS [1] is 6.00; against cGAS [2] it was 6.30.
On the same counts, the results for `C[C@@H]1CNC(=O)[C@H](C)c2c1[nH]c1c(Cl)c(Cl)cc(NCCO)c21` (single isomer, unassigned) [Example 156] are 5.74 and < 5.00.
The corresponding values for `CC(O)CC1CNC(=O)Cc2c1[nH]c1c(Cl)c(Cl)cc(CC#N)c21` (centres unmarked) [Example 120, 2-(7,8-Dichloro-5-(2-hydroxypropyl)-2-oxo-1,2,3,4,5,6-hexahydroazepino[4,5-b]indol-10-yl)acetonitrile] are 7.92 and 6.15.
On the same counts, the results for `CC1C(=O)NCCc2[nH]c3c(Cl)c(Cl)cc(N[C@H]4CCOC4)c3c21` (mixture of isomers) [Example 61, 7,8-Dichloro-1-methyl-10-(((S)-tetrahydrofuran-3-yl)amino)-3,4,5,6-tetrahydroazepino[4,5-b]indol-2(1H)-one] are 7.46 and 5.72.
`C[C@@H]1C(=O)NCCc2[nH]c3c(Cl)c(Cl)cc(N[C@H]4CCOC4)c3c21` (single isomer, unassigned) [Example 63]: the results for the pIC50 at cGAS [1] and on cGAS [2] were 5.78 and < 5.00, respectively.
The corresponding values for `CC1C(=O)NCCc2[nH]c3c(Cl)c(Cl)cc(NC4CCOC4)c3c21` (stereo in doubt) [Example 66, 7,8-Dichloro-1-methyl-10-(((R)-tetrahydrofuran-3-yl)amino)-3,4,5,6-tetrahydroazepino[4,5-b]indol-2(1H)-one] are 7.43 and 5.38.
On the same counts, the results for `Cn1c2c(c3c(CC#N)cc(Cl)c(Cl)c31)CC(=O)NC[C@H]2CCO` (single isomer, unassigned) [Example 122] are 6.03 and 5.53.
On the same counts, the results for `C[C@@H](O)CNc1cc(Cl)c(Cl)c2[nH]c3c(c12)[C@@H](C)C(=O)NCC3` (single isomer, unassigned) [Example 56] are 5.45 and 5.21.
For `C[C@@H]1C(=O)NCCc2[nH]c3c(Cl)c(Cl)cc(OCc4cocn4)c3c21` (single isomer, unassigned) [Example 179, (S)-7,8-Dichloro-1-methyl-10-(oxazol-4-ylmethoxy)-3,4,5,6-tetrahydroazepino[4,5-b]indol-2(1H)-one or (R)-7,8-dichloro-1-methyl-10-(oxazol-4-ylmethoxy)-3,4,5,6-tetrahydroazepino[4,5-b]indol-2(1H)-one], the pIC50 is 5.67 on cGAS [1] and < 5.00 against cGAS [2].
